By mortality is commonly meant the share of the test organisms that died.

Structures are written as SMILES. Read-outs that look alike come from different tables or passages of the source.

The results in this text go back to patent US9523100B2, “Pesticidal compositions and related methods” (DOW AGROSCIENCES LLC, priority 2013, dated 2016).

The subject of assay [1] is Sweetpotato Whitefly-Crawler (WF) (Bemisia tabaci) (BEMITA). In words: Insecticidal test for Sweetpotato Whitefly-Crawler (WF) in foliar spray assay on cotton plants. In kind it is in vivo. Conditions: 216 h, read-out: WF 200 ppm, % Control (or Mortality) rating. The text has this:
Insecticidal Test for Sweetpotato Whitefly-Crawler (WF) (Bemisia tabaci) (BEMITA) in Foliar Spray Assay
The sweetpotato whitefly (Bemisia tabaci) has been reported as a serious pest of cultivated crops world-wide. It has an extremely wide host range attacking more than 500 species of plants from 63 plant families. Weeds often serve as alternate hosts of crop pests. Direct feeding damage is caused by the piercing and sucking sap from the foliage of plants. This feeding causes weakening and early wilting of the plant and reduces the plant growth rate and yield Indirect damage results by the accumulation of honeydew produced by the whiteflies. Honeydew serves as a substrate for the growth of black sooty mold on leaves and fruit reducing photosynthesis and lessens the market value of the plant or yield. […] The sweetpotato whitefly is considered the most common and important whitefly vector of plant viruses worldwide.
Cotton plants (Gossypium hirsutum) grown in 3-inch pots, with 1 small (4-5 cm) true leaves, were used as test substrate. The plants were infested with 200-400 whitefly eggs 4-5 days prior to chemical application. Four pots with individual plants were used for each treatment. Test compounds (2 mg) were dissolved in 1 mL of acetone solvent, forming stock solutions of 2000 ppm test compound. The stock solutions were diluted 10× with 0.025% Tween 20 in water (diluents) to obtain the solution at 200 ppm test compound. A hand-held aspirator-type sprayer was used for spraying a solution to both sides of cotton leaves until runoff. Reference plants (solvent check) were sprayed with the diluent only containing 10% by volume of acetone solvent. Treated plants were held in a holding room for 9 days at approximately 25° C. and ambient relative humidity (RH) prior to grading. Evaluation was conducted by counting the number of live 3-4 nymph stage per plant under a microscope. Percent control was measured by using Abbott's correction formula (W. S. Abbott, “A Method of Computing the Effectiveness of an Insecticide” J. Econ. Entomol. 18 (1925), pp. 265-267) as follows.
Biological Data for Green Peach Aphid (GPA) (MYZUPE) and Sweetpotato Whitefly-Crawler (WF) (BEMITA)” (see table section). Corrected % Control=100*(X−Y)/X
X=No. of live nymphs on solvent check plants and
Y=No. of live nymphs on treated plants
(§1) The mortality efficiency of the pesticidal compounds against GPA and WF insects was determined after treatment.

The test system of assay [2] is Green Peach Aphid (GPA) (Myzus persicae) (MYZUPE). Description: Bioassay for Green Peach Aphid (GPA), foliar spray on cabbage seedlings. It counts as in vivo. Conditions: 72 h, read-out: GPA 200 ppm, % Control (or Mortality) rating.
Text: Bioassay for Green Peach Aphid (GPA) (Myzus persicae) (MYZUPE)
The green peach aphid (Myzus persicae) is the most significant aphid pest of peach trees, causing decreased growth, shriveling of the leaves, and the death of various tissues. It is also hazardous because it acts as a vector for the transport of plant viruses, such as potato virus Y and potato leafroll virus to members of the nightshade/potato family Solanaceae, and various mosaic viruses to many other food crops. GPA attacks such plants as broccoli, burdock, cabbage, carrot, cauliflower, daikon, eggplant, green beans, lettuce, macadamia, papaya, peppers, sweet potatoes, tomatoes, watercress, and zucchini, among other plants GPA also attacks many ornamental crops such as carnation, chrysanthemum, flowering white cabbage, poinsettia, and roses. GPA has developed resistance to many pesticides.
Cabbage seedlings grown in 3-inch pots, with 2-3 small (3-5 cm) true leaves, were used as test substrate. The seedlings were infested with 20-50 GPA (wingless adult and nymph stages) one day prior to chemical application. Four pots with individual seedlings were used for each treatment. Test compounds (2 mg) were dissolved in 2 mL of acetone/methanol (1:1) solvent, forming stock solutions of 1000 ppm test compound. The stock solutions were diluted 5× with 0.025% Tween 20 in water to obtain the solution at 200 ppm test compound. A hand-held aspirator-type sprayer was used for spraying a solution to both sides of […] leaves until runoff. Reference plants (solvent check) were sprayed with the diluent only containing 20% by volume of acetone/methanol (1:1) solvent. Treated plants were held in a holding room for three days at approximately 25° C. and ambient relative humidity (RH) prior to grading. Evaluation was conducted by counting the number of live aphids per plant under a microscope. Percent control was measured by using Abbott's correction formula (W. S. Abbott, “A Method of Computing the Effectiveness of an Insecticide” J. Econ. Entomol. 18 (1925), pp. 265-267) as follows. Corrected % Control=100*(X−Y)/X
X=No. of live aphids on solvent check plants and
Y=No. of live aphids on treated plants
Biological Data for Green Peach Aphid (GPA) (MYZUPE) and Sweetpotato Whitefly-Crawler (WF) (BEMITA)” (see table section).
as §1

Where [3] appears, read: 200 ppm foliar spray on cotton plants, graded after 9 days, Abbott corrected % control.
The mark [4] stands for this setting: 200 ppm foliar spray on cabbage seedlings, graded after three days, Abbott corrected % control.

For `CN(C(=O)CN1CCCC1=O)c1cn(-c2cccnc2)nc1Cl` [Compound F6, N-(3-Chloro-1-(pyridin-3-yl)-1H-pyrazol-4-yl)-N-methyl-2-(2-oxopyrrolidin-1-yl)acetamide], the mortality at 200 ppm in assay [1] (setting [3]) and in assay [2] (setting [4]) was 80 to 100% throughout.

On to `CCN(C(=O)C(C)O)c1cn(-c2cccnc2)nc1Cl` (stereo not drawn) [Compound C13, N-(3-chloro-1-(pyridin-3-yl)-1H-pyrazol-4-yl)-N-ethyl-2-hydroxypropanamide], for which the mortality at 200 ppm in assay [1] (setting [3]) and in assay [2] (setting [4]) was 80 to 100% in each case.

Regarding `CCN(C(=O)CCNC(=O)CC1CC1)c1cn(-c2cccnc2)nc1Cl` [Compound F75, N-(3-Chloro-1-(pyridin-3-yl)-1H-pyrazol-4-yl)-3-(2-cyclopropylacetamido)-N-ethylpropanamide], the mortality at 200 ppm in assay [1] (setting [3]) and in assay [2] (setting [4]) was 80 to 100% in each case.

As to `CCN(C(=O)C1CCCN(C(=O)OC(C)(C)C)C1)c1cn(-c2cccnc2)nc1Cl` (stereo not drawn) [FA18, tert-Butyl 3-((3-chloro-1-(pyridin-3-yl)-1H-pyrazol-4-yl)(ethyl)carbamoyl) piperidine-1-carboxylate], the mortality at 200 ppm in assay [1] (setting [3]) and in assay [2] (setting [4]) was 80 to 100% in each case.

`CCN(C(=O)CC/C(C)=N/OCC1CC1(F)F)c1cn(-c2cccnc2)nc1Cl` (mixture of isomers) [Compound F72, (E/Z)-N-(3-chloro-1-(pyridin-3-yl)-1H-pyrazol-4-yl)-4-(((2,2-difluorocyclopropyl)methoxy)imino)-N-ethylpentanamide]: the mortality at 200 ppm in assay [1] (setting [3]) and in assay [2] (setting [4]) was 80 to 100% throughout.

Consider `CCN(C(=O)CCC(=O)NCc1ccncc1)c1cn(-c2cccnc2)nc1Cl` [Compound F115, N1-(3-Chloro-1-(pyridin-3-yl)-1H-pyrazol-4-yl)-N1-ethyl-N4-(pyridin-4-ylmethyl)succinamide], for which the mortality at 200 ppm in assay [1] (setting [3]) is 80 to 100%; in assay [2] (setting [4]), 0 to 80%.

In the case of `CN(C(=O)CCN1CCOC1=O)c1cn(-c2cccnc2)nc1Cl` [Compound F31, N-(3-chloro-1-(pyridin-3-yl)-1H-pyrazol-4-yl)-N-methyl-3-(2-oxooxazolidin-3-yl)propanamide], the mortality at 200 ppm in assay [1] (setting [3]) and in assay [2] (setting [4]) was 80 to 100% each time.

On to `CN(C(=O)Cn1ccccc1=O)c1cn(-c2cccnc2)nc1Cl` [Compound F3, N-(3-Chloro-1-(pyridin-3-yl)-1H-pyrazol-4-yl)-N-methyl-2-(2-oxopyridin-1(2H)-yl)acetamide], for which the mortality at 200 ppm in assay [1] (setting [3]) and in assay [2] (setting [4]) was 80 to 100% throughout.

Consider `CC(=O)CCC(=O)N(C)c1cn(-c2cccnc2)nc1Cl` [FA75, N-(3-Chloro-1-(pyridin-3-yl)-1H-pyrazol-4-yl)-N-methyl-4-oxopentanamide], for which the mortality at 200 ppm in assay [1] (setting [3]) was 80 to 100%; in assay [2] (setting [4]), 0 to 80%.

As to `CC(=O)N[C@H]1C=C[C@@H](C(=O)N(C)c2cn(-c3cccnc3)nc2Cl)C1` [Compound F24, (1S,4R)-4-acetamido-N-(3-chloro-1-(pyridin-3-yl)-1H-pyrazol-4-yl)-N-methyl-cyclopent-2-enecarboxamide], the mortality at 200 ppm in assay [1] (setting [3]) and in assay [2] (setting [4]) was 80 to 100% each time.

For the compound `CCN(C(=O)CN1CCOC1=O)c1cn(-c2cccnc2)nc1Cl` [Compound F48, N-(3-Chloro-1-(pyridin-3-yl)-1H-pyrazol-4-yl)-N-ethyl-2-(2-oxooxazolidin-3-yl)acetamide], the mortality at 200 ppm in assay [1] (setting [3]) and in assay [2] (setting [4]) was 80 to 100% each time.

Turning to `CCN(C(=O)CC/C(C)=N/OCc1ccc(C(F)(F)F)nc1)c1cn(-c2cccnc2)nc1Cl` [FA22, (E/Z)-N-(3-Chloro-1-(pyridin-3-yl)-1H-pyrazol-4-yl)-N-ethyl-4-(((6-(trifluoromethyl)pyridin-3-yl)methoxy)imino)pentanamide], the mortality at 200 ppm in assay [1] (setting [3]) was in the range of 80 to 100%; in assay [2] (setting [4]) it was 0 to 80%.

Regarding `CCN(C(=O)C(C)OC(=O)N(C)C)c1cn(-c2cccnc2)nc1Cl` (stereo not drawn) [Compound F93, 1-((3-chloro-1-(pyridin-3-yl)-1H-pyrazol-4-yl)(ethyl)amino)-1-oxopropan-2-yl dimethylcarbamate], the mortality at 200 ppm in assay [1] (foliar) and in assay [2] (foliar) was 80 to 100% in each case.

Consider `CCN(C(=O)CCC(=O)N1CCCCC1)c1cn(-c2cccnc2)nc1Cl` [Compound F21, N-(3-Chloro-1-(pyridin-3-yl)-1H-pyrazol-4-yl)-N-ethyl-4-oxo-4-(piperidin-1-yl)butanamide], for which the mortality at 200 ppm fell in the range of 80 to 100% in assay [1] (setting [3]) and 0 to 80% in assay [2] (setting [4]).

Turning to `CCN(C(=O)CC/C(C)=N/OCc1noc(C(C)(C)C)n1)c1cn(-c2cccnc2)nc1Cl` [FA23, (E/Z)-4-(((5-(tert-Butyl)-1,2,4-oxadiazol-3-yl)methoxy)imino)-N-(3-chloro-1-(pyridin-3-yl)-1H-pyrazol-4-yl)-N-ethylpentanamide], in assay [2] (setting [4]), the mortality at 200 ppm was in the range of 0 to 80%.

With `CCN(C(=O)CC/C(C)=N/OCC1CC(F)(F)C1)c1cn(-c2cccnc2)nc1Cl` [FA21, (E/Z)-N-(3-Chloro-1-(pyridin-3-yl)-1H-pyrazol-4-yl)-4-(((3,3-difluorocyclobutyl)methoxy)imino)-N-ethylpentanamide], in assay [2] (setting [4]), the mortality at 200 ppm lay within 0 to 80%.

Consider `CC(C)(C)[Si](C)(C)N1CC(CCC(=O)O)C1=O` (stereo not drawn) [Compound C4, 3-(1-(tert-Butyldimethylsilyl)-2-oxoazetidin-3-yl)propanoic acid], for which, in assay [2] (foliar), the mortality at 200 ppm was in the range of 0 to 80%.

Consider `CCN(C(=O)CC/C(C)=N/OCc1c(C)noc1C)c1cn(-c2cccnc2)nc1Cl` [FA25, (E/Z)-N-(3-Chloro-1-(pyridin-3-yl)-1H-pyrazol-4-yl)-4-(((3,5-dimethylisoxazol-4-yl)methoxy)imino)-N-ethylpentanamide], for which the mortality at 200 ppm in assay [2] (setting [4]) lay within 0 to 80%.

Take `CC(C)(C)[Si](C)(C)N1CC(CC(=O)O)C1=O` (stereo not drawn) [Compound C3, 2-(1-(tert-butyldimethylsilyl)-2-oxoacetidin-3-yl)acetic acid]: the mortality at 200 ppm in assay [2] (foliar) was 0 to 80%.

On to `C=CCC(C)C(=O)N(CC)c1cn(-c2cccnc2)nc1Cl` (stereo not drawn) [CA1, N-[3-Chloro-1-(3-pyridyl)pyrazol-4-yl]-N-ethyl-2-methyl-pent-4-enamide], for which the mortality at 200 ppm in assay [2] (setting [4]) lay in the range of 80 to 100%.

Turning to `CCN(C(=O)CC/C(C)=N/OCc1ncc(C(F)(F)F)cc1Cl)c1cn(-c2cccnc2)nc1Cl` [FA24, (E/Z)-N-(3-Chloro-1-(pyridin-3-yl)-1H-pyrazol-4-yl)-4-(((3-chloro-5-(trifluoromethyl)pyridin-2-yl)methoxy)imino)-N-ethylpentanamide], in assay [2] (setting [4]), the mortality at 200 ppm was in the range of 0 to 80%.

`CCN(C(=O)C(C)C/C(C)=N/OCCC1CC1(F)F)c1cn(-c2cccnc2)nc1Cl` (stereo not drawn) [FA58, (E)-N-(3-Chloro-1-(pyridin-3-yl)-1H-pyrazol-4-yl)-4-((2-(2,2-difluorocyclopropyl)ethoxy)imino)-N-ethyl-2-methylpentanamide]: the mortality at 200 ppm in assay [2] (setting [4]) was in the range of 80 to 100%.
